Like-named read-outs stand apart in the source and are kept apart here.
Assays:
HCV (JFH-5aFlucm4) = assay: Evaluation of anti-HCV activity 1: huh7.5.1 cells inoculated with HCV carrying renilla luciferase reporter; type: cell-based; conditions: Hepatitis C virus
Procedure: To evaluate the anti-HCV activity of the compound represented by formula 1 of the present invention, the following experiment was performed.
The hepatoma cell line huh7.5.1 was distributed in a 12-well cell culture plate at the density of 50,000 cells/well. The cells were cultured in DMEM (Dulbecco's Modified Eagle's Medium 12800-017, GIBCO Co.) supplemented with 10% (v/v) FBS (Fetal Bovine Serum SH30406.02, Hyclone Co.) and 1% (v/v) antibiotics (penicillin/streptomycin solution SV30010, Hyclone Co.) in a 37° C. 6.0% CO2 incubator (CO2 Incubator 311, Forma Scientific Co, Lnc. USA) for 24 hours to lead cell attachment on the plate. Then, the cells were inoculated with HCV (JFH-5aFlucm4, PLoS One. 2011; 6(8):e228808.) having renilla luciferase gene as a reporter for 3 hours. Upon completion of the virus inoculation, the cell culture medium was replaced with the medium containing the compounds prepared in Examples 1˜24 at the concentration of 1 μM each. The cells were cultured in a 37° C. 6.0% CO2 incubator (CO2 Incubator 311, Forma Scientific Co, Lnc. USA) for 3 days. Three days after the infection, the cell culture medium was collected to measure the cytotoxicity in the following Experimental Example 3. The cells attached on the plate were washed with PBS (phosphate buffered saline) and then lysed by treating 100 μl of 1× passive lysis buffer (Promega, E1941). The cell lysate (10 μl) was added to renilla luciferase assay reagent (50 μl) in renilla luciferase assay system (Promega, E2820), followed by measurement of luminescence for 10 seconds using the luciferase measure program with Luminometer (GLOMAX 20/20 Luminometer, Promega). At this time, the measurement of luminescence was performed in triplicate with the groups treated with the compounds of Examples 1˜24 and the non-treated control group. The mean value was calculated and compared. The luminescence of each compound over the concentration was converted into EC50 (half maximal effective concentration) by using sigma plot program, and the results are shown in Table 2.

hERG = hERG (Homo sapiens, UniProt Q12809); assay: hERG ligand binding, fluorescence polarization with red fluorescent hERG channel ligand
Chain of hERG (Q12809 whole entry): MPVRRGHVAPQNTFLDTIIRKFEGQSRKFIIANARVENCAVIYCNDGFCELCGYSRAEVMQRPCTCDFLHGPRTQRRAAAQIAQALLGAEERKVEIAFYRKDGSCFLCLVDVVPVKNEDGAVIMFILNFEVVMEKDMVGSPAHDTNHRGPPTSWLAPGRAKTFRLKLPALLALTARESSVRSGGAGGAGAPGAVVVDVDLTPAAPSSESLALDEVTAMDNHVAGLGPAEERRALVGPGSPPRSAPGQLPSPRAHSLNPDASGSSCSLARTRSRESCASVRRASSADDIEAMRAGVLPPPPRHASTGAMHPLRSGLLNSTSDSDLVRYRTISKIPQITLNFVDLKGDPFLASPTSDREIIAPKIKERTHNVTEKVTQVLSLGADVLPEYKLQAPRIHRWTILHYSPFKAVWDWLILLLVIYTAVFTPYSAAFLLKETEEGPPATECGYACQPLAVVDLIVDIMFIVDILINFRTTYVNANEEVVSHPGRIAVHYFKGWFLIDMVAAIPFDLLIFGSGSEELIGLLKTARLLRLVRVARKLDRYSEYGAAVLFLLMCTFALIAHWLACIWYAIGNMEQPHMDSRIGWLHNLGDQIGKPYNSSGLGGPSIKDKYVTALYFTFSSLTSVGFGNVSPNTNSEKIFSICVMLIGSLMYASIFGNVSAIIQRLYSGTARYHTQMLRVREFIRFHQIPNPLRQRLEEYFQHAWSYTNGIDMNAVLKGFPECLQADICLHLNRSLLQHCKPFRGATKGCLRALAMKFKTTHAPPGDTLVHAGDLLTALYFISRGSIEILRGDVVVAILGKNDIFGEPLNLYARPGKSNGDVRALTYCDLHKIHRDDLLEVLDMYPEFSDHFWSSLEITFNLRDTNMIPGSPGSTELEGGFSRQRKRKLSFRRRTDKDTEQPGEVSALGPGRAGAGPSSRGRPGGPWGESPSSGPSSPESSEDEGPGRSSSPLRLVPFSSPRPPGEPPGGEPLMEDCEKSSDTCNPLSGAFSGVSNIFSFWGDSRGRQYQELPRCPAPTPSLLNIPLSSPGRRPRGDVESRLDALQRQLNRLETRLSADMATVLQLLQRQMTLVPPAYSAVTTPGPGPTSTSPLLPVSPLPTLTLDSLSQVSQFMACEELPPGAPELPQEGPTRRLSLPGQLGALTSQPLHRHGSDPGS

HCV replicon NK/R2AN = assay: Evaluation of anti-HCV activity 2: inhibition of HCV replication, huh7.5.1 cells with replicon NK/R2AN, renilla luciferase; type: cell-based; conditions: for EC50: Hepatitis C virus
Procedure: To evaluate the anti-HCV activity, that is the activity to inhibit HCV replication, of the compound represented by formula 1 of the present invention, the following experiment was performed.
The hepatoma cell line huh7.5.1 having NK/R2AN, the replicon with which the replication and translation of HCV could be measured, was distributed in a 12-well cell culture plate at the density of 50,000 cells/well. The cells were cultured in DMEM (Dulbecco's Modified Eagle's Medium 12800-017, GIBCO Co.) supplemented with 10% (v/v) FBS (Fetal Bovine Serum SH30406.02, Hyclone Co.), 1% (v/v) antibiotics (penicillin/streptomycin solution SV30010, Hyclone Co.), and G418 (600 μg/mL, Calbiochem) in a 37° C. 6.0% CO2 incubator (CO2 Incubator 311, Forma Scientific Co, Lnc. USA) for 24 hours to lead cell attachment on the plate. Then, the cells were inoculated with HCV having renilla luciferase gene as a reporter for 3 hours. Upon completion of the virus inoculation, the cell culture medium was replaced with the medium containing the compounds prepared in Examples 1˜24 were added to the culture medium at the concentrations of 40 pM˜1 μM each. The cells were cultured in a 37° C. 6.0% CO2 incubator (CO2 Incubator 311, Forma Scientific Co, Lnc. USA) for 3 days. Three days after the infection, the cell culture medium was collected to measure the cytotoxicity in the following Experimental Example 3. The cells attached on the plate were washed with PBS (phosphate buffered saline) and then lysed by treating 100 μl of 1× passive lysis buffer (Promega, E1941). The cell lysate (10 μl) was added to renilla luciferase assay reagent (50 μl) in renilla luciferase assay system (Promega, E2820), followed by measurement of luminescence for 10 seconds using the luciferase measure program with Luminometer (GLOMAX 20/20 Luminometer, Promega). At this time, the measurement of luminescence was performed in triplicate with the groups treated with the compounds of Examples 1˜24 and the non-treated control group. The mean value was calculated and compared. The luminescence of each compound over the concentration was converted into EC50 (half maximal effective concentration) by using sigma plot program, and the results are shown in Table 3. At this time, when EC50 was under 100 pM, it was marked as A; when EC50 was in the range of 100 pM 1 nM, it was marked as B; when EC50 was in the range of 1 nM˜100 nM, it was marked as C; and when EC50 was over 100 nM, it was marked as D. The results are shown in Table 3.

[1] = Evaluation of plasma stability; type: in vitro ADME, mouse; conditions: plasma:phosphate buffer pH 7.4 1:1, 37° C., LC-MS/MS, relative to time 0
Procedure: Particularly, the compound of Example 16 was dissolved in dimethylsulfoxide at the concentration of 5 μM, resulting in the preparation of the sample solution. The plasma solution (495 μl) was prepared by mixing phosphate buffer (pH 7.4) and plasma at the ratio of 1:1, which was loaded in each well of a 96-well plate. The sample solution prepared above was added to each well (5 μl) of the plate. Then, the plate was covered with a lid, followed by shaking-culture at 100 rpm at 37° C. for 0.5, 1, and 4 hours in the orbital shaker. The reaction was terminated by adding 0-5° C. acetonitrile. At this time, in the case when the process time was 0 after the sample treatment, the reaction was terminated with acetonitrile at the same time as the sample solution was loaded in the plate containing the plasma solution. Upon completion of the reaction, the plate was kept frozen. Then, the plate was centrifuged at 3000 rpm for 10 minutes. Upon completion of the centrifugation, the supernatant (100 μl) was loaded in each well of a 96-well plate, followed by LC-MS/MS. The result obtained by measuring the plasma survival rate at the process time 0 was considered as the standard, based on which each time-dependent plasma survival rate was calculated by considering the concentration over the time of each sample. The results are presented in Tale 6.

[2] = Huh-7.5.1, 72 h, read-out: EC50 grade

COC(=O)N[C@@H](C(=O)N1CCC[C@H]1C(=O)Nc1ccc(-c2ccc(NC(=O)[C@@H]3CCCN3C(=O)[C@H](NC(=O)OC)c3ccccc3)cc2)cc1)c1ccccc1 [Example 16, dimethyl(1S,1′S)-2,2′-((2S,2′S)-2,2′-(biphenyl-4,4′-diylbis(azandiyl))bis(oxomethylene)bis(pyrrolidine-2,1-diyl))bis(2-oxo-1-phenylethane-2,1-diyl)dicarbamate]
EC50 (HCV (JFH-5aFlucm4); Huh-7.5.1): < 1 nM
EC50 (HCV (JFH-5aFlucm4); [2]): < 1 nM
IC50 (hERG): 9800 nM
EC50 (HCV replicon NK/R2AN; Huh-7.5.1): < 0.1 nM
EC50 (HCV replicon NK/R2AN; [2]): < 0.1 nM
EC50 (in words) (HCV replicon NK/R2AN; duplicated HCV treated with compound): significantly low
Survival rate after 0.5 h [1]: >99%
Survival rate after 1 h [1]: >99%
